{
  "source": "ChEMBL document CHEMBL3885881",
  "about": "“DrugMatrix”",
  "organism": "Rattus norvegicus",
  "test": "DrugMatrix - Regimen: Daily Repeat",
  "assay_type": "toxicity, organism-based, Sprague-Dawley",
  "design": "regimen Daily Repeat, gender Male, age 6-8 weeks",
  "conditions": "in vivo, po, 1402 mg/kg, route oral GAVAGE, dose level High, vehicle 100 % WATER; for ABSOLUTE BASOPHIL / ABSOLUTE EOSINOPHIL / ABSOLUTE LYMPHOCYTE / ABSOLUTE MONOCYTE / ABSOLUTE SEGMENTED NEUTROPHIL / BASOPHIL / EOSINOPHIL / ERYTHROCYTE COUNT / HEMATOCRIT / HEMOGLOBIN / LEUKOCYTE COUNT / LYMPHOCYTE / MEAN CORPUSCULAR HEMOGLOBIN / MEAN CORPUSCULAR HEMOGLOBIN CONCENTRATION / MEAN CORPUSCULAR VOLUME / MONOCYTE / NEUTROPHIL / NUCLEATED RED BLOOD CELLS / PLATELET COUNT: tissue Blood; for ALANINE AMINOTRANSFERASE / ALBUMIN / ALKALINE PHOSPHATASE / ASPARTATE AMINOTRANSFERASE / BLOOD UREA NITROGEN / CARBON DIOXIDE / CHLORIDE / CHOLESTEROL / CREATINE PHOSPHOKINASE / CREATININE / GLUCOSE / LACTATE DEHYDROGENASE / LIPASE / PHOSPHORUS / POTASSIUM / SODIUM / TOTAL BILIRUBIN / TOTAL PROTEIN / URIC ACID: tissue Plasma",
  "data": [
    {"smiles": "C[C@H](CCC(=O)O)[C@H]1CC[C@H]2[C@@H]3[C@H](O)C[C@@H]4C[C@H](O)CC[C@]4(C)[C@H]3C[C@H](O)[C@]12C", "note": "[CHOLIC ACID]", "values": [
      {"measurement": "ABSOLUTE BASOPHIL", "setting": "72 h, time 3 day", "result": 0, "unit": "CELLS/uL"},
      {"measurement": "ABSOLUTE EOSINOPHIL", "setting": "72 h, time 3 day", "result": 95.33, "unit": "CELLS/uL"},
      {"measurement": "ABSOLUTE LYMPHOCYTE", "setting": "72 h, time 3 day", "result": 13410.67, "unit": "CELLS/uL"},
      {"measurement": "ABSOLUTE MONOCYTE", "setting": "72 h, time 3 day", "result": 0, "unit": "CELLS/uL"},
      {"measurement": "ABSOLUTE SEGMENTED NEUTROPHIL", "setting": "72 h, time 3 day", "result": 960.67, "unit": "CELLS/uL"},
      {"measurement": "BASOPHIL", "setting": "72 h, time 3 day", "result": 0, "unit": "%"},
      {"measurement": "EOSINOPHIL", "setting": "72 h, time 3 day", "result": 0.67, "unit": "%"},
      {"measurement": "ERYTHROCYTE COUNT", "setting": "72 h, time 3 day", "result": 5.62, "unit": "x10E6/uL"},
      {"measurement": "HEMATOCRIT", "setting": "72 h, time 3 day", "result": 34.5, "unit": "%"},
      {"measurement": "HEMOGLOBIN", "setting": "72 h, time 3 day", "result": 13.7, "unit": "G/DL"},
      {"measurement": "LEUKOCYTE COUNT", "setting": "72 h, time 3 day", "result": 14.47, "unit": "x10E3/uL"},
      {"measurement": "LYMPHOCYTE", "setting": "72 h, time 3 day", "result": 92.67, "unit": "%"},
      {"measurement": "MEAN CORPUSCULAR HEMOGLOBIN", "setting": "72 h, time 3 day", "result": 24.47, "unit": "pg"},
      {"measurement": "MEAN CORPUSCULAR HEMOGLOBIN CONCENTRATION", "setting": "72 h, time 3 day", "result": 39.8, "unit": "G/DL"},
      {"measurement": "MEAN CORPUSCULAR VOLUME", "setting": "72 h, time 3 day", "result": 61.47, "unit": "fL"},
      {"measurement": "MONOCYTE", "setting": "72 h, time 3 day", "result": 0, "unit": "%"},
      {"measurement": "NEUTROPHIL", "setting": "72 h, time 3 day", "result": 6.67, "unit": "%"},
      {"measurement": "NUCLEATED RED BLOOD CELLS", "setting": "72 h, time 3 day", "result": "0 /100WBC"},
      {"measurement": "PLATELET COUNT", "setting": "72 h, time 3 day", "result": 1053.33, "unit": "x10E3/uL"},
      {"measurement": "ALANINE AMINOTRANSFERASE", "setting": "72 h, time 3 day", "result": 55.33, "unit": "u/L"},
      {"measurement": "ALBUMIN", "setting": "72 h, time 3 day", "result": 4.17, "unit": "G/DL"},
      {"measurement": "ALKALINE PHOSPHATASE", "setting": "72 h, time 3 day", "result": 359.33, "unit": "u/L"},
      {"measurement": "ASPARTATE AMINOTRANSFERASE", "setting": "72 h, time 3 day", "result": 84.67, "unit": "u/L"},
      {"measurement": "BLOOD UREA NITROGEN", "setting": "72 h, time 3 day", "result": 16, "unit": "mg/dL"},
      {"measurement": "CARBON DIOXIDE", "setting": "72 h, time 3 day", "result": 32, "unit": "mmol/L"},
      {"measurement": "CHLORIDE", "setting": "72 h, time 3 day", "result": 101.67, "unit": "MEQ/L"},
      {"measurement": "CHOLESTEROL", "setting": "72 h, time 3 day", "result": 91.33, "unit": "mg/dL"},
      {"measurement": "CREATINE PHOSPHOKINASE", "setting": "72 h, time 3 day", "result": 224, "unit": "u/L"},
      {"measurement": "CREATININE", "setting": "72 h, time 3 day", "result": 0.19, "unit": "mg/dL"},
      {"measurement": "GLUCOSE", "setting": "72 h, time 3 day", "result": 152, "unit": "mg/dL"},
      {"measurement": "LACTATE DEHYDROGENASE", "setting": "72 h, time 3 day", "result": 124.33, "unit": "u/L"},
      {"measurement": "LIPASE", "setting": "72 h, time 3 day", "result": 9.67, "unit": "u/L"},
      {"measurement": "PHOSPHORUS", "setting": "72 h, time 3 day", "result": 12.63, "unit": "mg/dL"},
      {"measurement": "POTASSIUM", "setting": "72 h, time 3 day", "result": 7.15, "unit": "MEQ/L"},
      {"measurement": "SODIUM", "setting": "72 h, time 3 day", "result": 144.2, "unit": "MEQ/L"},
      {"measurement": "TOTAL BILIRUBIN", "setting": "72 h, time 3 day", "result": 0.2, "unit": "mg/dL"},
      {"measurement": "TOTAL PROTEIN", "setting": "72 h, time 3 day", "result": 5.77, "unit": "G/DL"},
      {"measurement": "URIC ACID", "setting": "72 h, time 3 day", "result": 1.93, "unit": "mg/dL"},
      {"measurement": "ABSOLUTE BASOPHIL", "setting": "120 h, time 5 day", "result": 0, "unit": "CELLS/uL"},
      {"measurement": "ABSOLUTE EOSINOPHIL", "setting": "120 h, time 5 day", "result": 0, "unit": "CELLS/uL"},
      {"measurement": "ABSOLUTE LYMPHOCYTE", "setting": "120 h, time 5 day", "result": 13701.33, "unit": "CELLS/uL"},
      {"measurement": "ABSOLUTE MONOCYTE", "setting": "120 h, time 5 day", "result": 565.67, "unit": "CELLS/uL"},
      {"measurement": "ABSOLUTE SEGMENTED NEUTROPHIL", "setting": "120 h, time 5 day", "result": 1233, "unit": "CELLS/uL"},
      {"measurement": "BASOPHIL", "setting": "120 h, time 5 day", "result": 0, "unit": "%"},
      {"measurement": "EOSINOPHIL", "setting": "120 h, time 5 day", "result": 0, "unit": "%"},
      {"measurement": "ERYTHROCYTE COUNT", "setting": "120 h, time 5 day", "result": 5.73, "unit": "x10E6/uL"},
      {"measurement": "HEMATOCRIT", "setting": "120 h, time 5 day", "result": 34.97, "unit": "%"},
      {"measurement": "HEMOGLOBIN", "setting": "120 h, time 5 day", "result": 13.73, "unit": "G/DL"},
      {"measurement": "LEUKOCYTE COUNT", "setting": "120 h, time 5 day", "result": 15.5, "unit": "x10E3/uL"},
      {"measurement": "LYMPHOCYTE", "setting": "120 h, time 5 day", "result": 88.67, "unit": "%"},
      {"measurement": "MEAN CORPUSCULAR HEMOGLOBIN", "setting": "120 h, time 5 day", "result": 24, "unit": "pg"},
      {"measurement": "MEAN CORPUSCULAR HEMOGLOBIN CONCENTRATION", "setting": "120 h, time 5 day", "result": 39.3, "unit": "G/DL"},
      {"measurement": "MEAN CORPUSCULAR VOLUME", "setting": "120 h, time 5 day", "result": 60.97, "unit": "fL"},
      {"measurement": "MONOCYTE", "setting": "120 h, time 5 day", "result": 3.67, "unit": "%"},
      {"measurement": "NEUTROPHIL", "setting": "120 h, time 5 day", "result": 7.67, "unit": "%"},
      {"measurement": "NUCLEATED RED BLOOD CELLS", "setting": "120 h, time 5 day", "result": "0.67 /100WBC"},
      {"measurement": "PLATELET COUNT", "setting": "120 h, time 5 day", "result": 1207, "unit": "x10E3/uL"},
      {"measurement": "ALANINE AMINOTRANSFERASE", "setting": "120 h, time 5 day", "result": 112, "unit": "u/L"},
      {"measurement": "ALBUMIN", "setting": "120 h, time 5 day", "result": 4.27, "unit": "G/DL"},
      {"measurement": "ALKALINE PHOSPHATASE", "setting": "120 h, time 5 day", "result": 330, "unit": "u/L"},
      {"measurement": "ASPARTATE AMINOTRANSFERASE", "setting": "120 h, time 5 day", "result": 171, "unit": "u/L"},
      {"measurement": "BLOOD UREA NITROGEN", "setting": "120 h, time 5 day", "result": 16.33, "unit": "mg/dL"},
      {"measurement": "CARBON DIOXIDE", "setting": "120 h, time 5 day", "result": 30.33, "unit": "mmol/L"},
      {"measurement": "CHLORIDE", "setting": "120 h, time 5 day", "result": 101.67, "unit": "MEQ/L"},
      {"measurement": "CHOLESTEROL", "setting": "120 h, time 5 day", "result": 94.33, "unit": "mg/dL"},
      {"measurement": "CREATINE PHOSPHOKINASE", "setting": "120 h, time 5 day", "result": 383.67, "unit": "u/L"},
      {"measurement": "CREATININE", "setting": "120 h, time 5 day", "result": 0.27, "unit": "mg/dL"},
      {"measurement": "GLUCOSE", "setting": "120 h, time 5 day", "result": 120.67, "unit": "mg/dL"},
      {"measurement": "LACTATE DEHYDROGENASE", "setting": "120 h, time 5 day", "result": 380.33, "unit": "u/L"},
      {"measurement": "LIPASE", "setting": "120 h, time 5 day", "result": 12, "unit": "u/L"},
      {"measurement": "PHOSPHORUS", "setting": "120 h, time 5 day", "result": 12.13, "unit": "mg/dL"},
      {"measurement": "POTASSIUM", "setting": "120 h, time 5 day", "result": 7.47, "unit": "MEQ/L"},
      {"measurement": "SODIUM", "setting": "120 h, time 5 day", "result": 144.4, "unit": "MEQ/L"},
      {"measurement": "TOTAL BILIRUBIN", "setting": "120 h, time 5 day", "result": 0.2, "unit": "mg/dL"},
      {"measurement": "TOTAL PROTEIN", "setting": "120 h, time 5 day", "result": 6.23, "unit": "G/DL"},
      {"measurement": "URIC ACID", "setting": "120 h, time 5 day", "result": 2.1, "unit": "mg/dL"}
    ]}
  ]
}
